These results are taken from US9023788B2, “Methods compounds and pharmaceutical compositions for treating anxiety and mood disorders” (New York University, priority 2010, dated 2015).

In series [1] the test system is Swiss Webster male mice. The experiment in a line: Repeated open space forced swim (RFS) test.
Description: (§2) In experiment on chronic administration, a daily dose of 0.5 mg/kg in the same vehicle was administered for 11 d.
(§3) Infusion procedure. All experiments were performed between 1000 and 1400 hr. […] A total of 350 n1 of solution was infused at 100 nl/min over a 3.5 min period with the cannula remaining in place for 30 seconds after infusion. The animal was then subjected to the behavioral tests described below making the interval between the start of infusion and start of behavioral test 4.5-5 min. […] All drugs were prepared freshly each day in saline.
In this procedure, mice are swum for 15-20 min/d for 4 d in rat tub cages (24×43×23 cm, w×h×l) filled with 13 cm high luke-warm water (32-34° C.) and thereafter once or twice a week. […] In the present experiment, the animals were matched on immobility level of the 4th swim into vehicle and drug groups and infused ivt. just prior to the 5th swim. Groups given i.p. injections were dosed initially 5 min after the 4th swim and finally 30 min prior to the 5th swim. Discs were rated as above on immobility and distance swum (number of quadrants entered).
Series [2] relates to Swiss Webster male mice. The experiment in a line: Open field motor activity and anxiety (i.p. dp6FNE/prazosin). Conditions: 1 h; dp6FNE 0.1-3 mg/kg/prazosin; amphetamine 2 mg/kg i.p. The class given is in vivo, mouse. As for the experimental part:
For purposes of comparison, some animals received instead d-amphetamine, 2 mg/kg, i.p. Total quadrants entered and time in the center area of the field as a ratio to the total distance traveled were rated from videorecordings.

Another series has as its system handling-stressed mice. Put plainly: Home cage activity after handling and injection stress. In kind it is in vivo, mouse. The following applies: acute i.p. dp6FNE 1 mg/kg in the presence of phentolamine; cirazoline 0.1 mg/kg; FIG. 3. The procedure: FIG. 3 depicts the effect of acute i.p. dp6FNE (1 mg/kg) or cirazoline (0.1 mg/kg), (both N=1), on home cage activity in terms of rearing and ambulation, Veh (N=12).
It is known that peripheral administration of α1-agonists without phentolamine impairs exploratory behavior in the open field (Yang, et al., J Pharmacol exp Ther 1990; 255: 1064-1070).

The conditions of series [3]: in vivo; cited from earlier work.
The nature of series [4]: Chronic mild stress (CMS)-anhedonia model, sweetened milk consumption. In kind it is in vivo. Conditions: FIG. 5. The text has this:
The latter property may actually be beneficial as it would counter the weight gain frequently reported with antidepressant treatment (Richelson, Mayo Clin Proc 2001; 76: 511-527).

The subject of series [5] is mice. Put plainly: Elevated plus-maze test. Conditions: dp6FNE 0, 1, 3, 10 mg/kg i.p. plus phentolamine 1 mg/kg; Example 6, expected. The class given is in vivo, mouse. The procedure: (§1) To verify that dp6FNE has anxiolytic effects this agent is tested in both the light/dark box (Shimada, et al., Gen Pharmac 1995; 26: 205-210) and elevated plus-maze (Pellow, et al., J Neurosci Methods 1985; 14: 149-167). […] For the plus-maze, the animal is placed in the center section of the maze and videotaped to determine both number of entries and time spent in the open and closed arms of the maze.

The test system of series [6] is mice. The experiment in a line: Light/dark box test. In kind it is in vivo, mouse. The following applies: dp6FNE 0, 1, 3, 10 mg/kg i.p. plus phentolamine 1 mg/kg; Example 6, expected. As for the experimental part:
as §1

Series [7] concerns Swiss Webster male mice. Put plainly: Tail suspension test. The following applies: i.p. 1, 3 and 10 mg/kg; FIG. 5. In kind it is in vivo, mouse.
Description: as §2, §3
Tail suspension test: The procedure of Stem, et al., Psychopharmacology 1985; 85: 367-370 was used. Immediately following intraventricular infusion or 30 min after the third i.p. injection, the animals were taped by the tail 72 cm above a padded platform for 6 min during which time they were videorecorded. Disks were subsequently rated blind as above for times immobile during the last 4 min of the test.
For series [8], the system named is Swiss Webster male mice. Put plainly: Observation for sedation and signs of toxicity. The class given is in vivo, mouse. The text has this: Sedation interferes with behavioral performance and is therefore a detrimental side effect to the treatment of major depressive illness in humans.
Although dp6FNE was designed to be a temporary treatment, it was of interest to determine how long it would remain effective if given repeatedly.

Molecules are shown by their SMILES.

Take `CC(C)(C)C(=O)Oc1cc(F)c(C(O)CN)cc1OC(=O)C(C)(C)C` (stereo not shown) [dp6FNE, Dipivalyl-6-fluoronorepinephrine]: the “onset of action compared with available antidepressants” value in the series with Swiss Webster male mice [1] (acute i.p. administration) is reported as “significantly faster onset of action”. In the series with Swiss Webster male mice [1] (acute i.p., dp6FNE 1, 3, 10 mg/kg with prazosin 0.2 mg/kg, DMI 10 mg/kg, FIG. 5), the “effect in repeated open-space swim test” value is recorded as “significant antidepressant action”. Further, in the series on Swiss Webster male mice [1] (dp6FNE 0.3 mg/kg with prazosin 0.2 mg/kg, animals not pretreated with either antagonist), the immobility versus vehicle entry is “significantly reduced immobility versus vehicle”. In addition, the “distance swum versus vehicle” value in the series with Swiss Webster male mice [1] (dp6FNE 0.3 mg/kg with prazosin 0.2 mg/kg, animals not treated with either antagonist) is recorded as “significantly increased distances swum”. In addition, the “speed or efficacy compared with partial α1-agonists” value with Swiss Webster male mice [1] (i.p. 0, 1, 3, 10 mg/kg with phentolamine 1 mg/kg, 30 min before swim, Example 5, expected) is listed as “more rapid or efficacious than the partial α1-agonists”. In addition, in the series with Swiss Webster male mice [2], the “motor activity (quadrants entered)” value is listed as “little or no effect on locomotor activity” and the “relative time in the center of the field” value was “increased time in the center of the field”. The “home cage exploration / behavioral inhibition after handling and injection stress” value with handling-stressed mice is “same rescue of home cage exploration”. Also, the “passage of the blood brain barrier / uptake by the brain” value in series [3] is “does pass the blood brain barrier”. In addition, the “CMS reduction of sweetened milk intake” value in series [4] (acute i.p. dp6FNE with prazosin 0.2 mg/kg) is “eliminates the CMS reduction of intake”. The hypophagia entry in [4] (acute i.p. dp6FNE) was “significant hypophagia”. For the same compound, the “time spent in the open arms” value with mice [5] is on record as “increased time spent”. Besides, the “time spent in the lighted side” value in the series with mice [6] was “increased time spent”. In addition, the “antidepressant action in tail suspension test” value in the series with Swiss Webster male mice [7] is listed as “significant antidepressant action”. Moreover, the “signs of toxicity (reduced arousal, disheveled fur coat)” value in the series on Swiss Webster male mice [8] (after repeated treatment, 0.5 mg/kg i.p. 11 daily treatments, no formal measures) is on record as “no obvious signs of toxicity”. Further, in the series with Swiss Webster male mice [8] (intracerebral 6FNE or peripheral dp6FNE, range of behavioral tests), the sedation result is on record as “Sedation has not been observed”.
